In patent US20260285850A1, “SUBSTITUTED OXAZOLIDINONES AND IMIDAZOLINONES AS HERBICIDES” (FMC CORPORATION, priority 2023, published 2026):

Columns and labels:
Format in all cases: in vivo
[1] = system: barnyardgrass (Echinochloa crus-galli); experiment: Test A postemergence application, visual injury rating 0-100; details: Postemergence
Excerpt: (§1) Seeds of plant species selected from barnyardgrass (Echinochloa crus-galli), blackgrass (Alopecurus myosuroides), corn (Zea mays), foxtail, giant (giant foxtail, Setaria faberi), green foxtail (Setaria viridis), goosegrass (Eleusine indica), kochia (Bassia scoparia), oat, wild (wild oat, Avena fatua), palmer (palmer amaranth, palmer pigweed, Amaranthus palmeri), ragweed (common ragweed, Ambrosia artemisiifolia), ryegrass, Italian (italian ryegrass, Lolium multiflorum), soybean (Glycine max) and wheat (Triticum aestivum) were planted into a blend of loam soil and sand and treated preemergence with a directed soil spray using test chemicals formulated in a non-phytotoxic solvent mixture which included a surfactant.
(§2) At the same time, plants selected from these crops and weed species and also galium (catchweed bedstraw, Galium aparine) and horseweed (Erigeron canadensis) were planted in pots containing the same blend of loam soil and sand and treated with postemergence applications of test chemicals formulated in the same manner. Plants ranged in height from 2 to 10 cm and were in the one- to two-leaf stage for the postemergence treatment. Treated plants and untreated controls were maintained in a greenhouse for 10 days, after which time all treated plants were compared to untreated controls and visually evaluated for injury. Plant response ratings, summarized in Table A, are based on a 0 to 100 scale where 0 is no effect and 100 is complete control. A dash (-) response means no test result.

[2] = system: ryegrass, Italian (italian ryegrass, Lolium multiflorum); experiment: as above; details: Postemergence
Excerpt: as §1, §2

[3] = system: soybean (Glycine max); experiment: as above; details: Postemergence
Excerpt: as §1, §2

[4] = system: oat, wild (wild oat, Avena fatua); experiment: as above; details: Postemergence
Excerpt: as §1, §2

[5] = system: galium (catchweed bedstraw, Galium aparine); experiment: as above; details: Postemergence
Excerpt: as §1, §2

[6] = system: corn (Zea mays); experiment: as above; details: Postemergence
Excerpt: as §1, §2

[7] = system: blackgrass (Alopecurus myosuroides); experiment: as above; details: Postemergence
Excerpt: as §1, §2

[8] = system: ragweed (common ragweed, Ambrosia artemisiifolia); experiment: as above; details: Postemergence
Excerpt: as §1, §2

[9] = system: wheat (Triticum aestivum); experiment: as above; details: Postemergence
Excerpt: as §1, §2

[10] = system: kochia (Bassia scoparia); experiment: as above; details: Postemergence
Excerpt: as §1, §2

[11] = system: horseweed (Erigeron canadensis); experiment: as above; details: Postemergence
Excerpt: as §1, §2

[12] = system: palmer (palmer amaranth, palmer pigweed, Amaranthus palmeri); experiment: as above; details: Postemergence
Excerpt: as §1, §2

[13] = system: barnyardgrass (Echinochloa crus-galli); experiment: Test A preemergence soil spray, visual injury rating 0-100; details: 10 days, 0 = no effect, 100 = complete control
Excerpt: as §1, §2

[14] = system: ryegrass, Italian (italian ryegrass, Lolium multiflorum); experiment: as above; details: 10 days, 0 = no effect, 100 = complete control
Excerpt: as §1, §2

[15] = system: soybean (Glycine max); experiment: as above; details: 10 days, 0 = no effect, 100 = complete control
Excerpt: as §1, §2

[16] = system: oat, wild (wild oat, Avena fatua); experiment: as above; details: 10 days, 0 = no effect, 100 = complete control
Excerpt: as §1, §2

[17] = system: corn (Zea mays); experiment: as above; details: 10 days, 0 = no effect, 100 = complete control
Excerpt: as §1, §2

[18] = system: blackgrass (Alopecurus myosuroides); experiment: as above; details: 10 days, 0 = no effect, 100 = complete control
Excerpt: as §1, §2

[19] = system: ragweed (common ragweed, Ambrosia artemisiifolia); experiment: as above; details: 10 days, 0 = no effect, 100 = complete control
Excerpt: as §1, §2

[20] = system: wheat (Triticum aestivum); experiment: as above; details: 10 days, 0 = no effect, 100 = complete control
Excerpt: as §1, §2

[21] = system: kochia (Bassia scoparia); experiment: as above; details: 10 days, 0 = no effect, 100 = complete control
Excerpt: as §1, §2

[22] = system: palmer (palmer amaranth, palmer pigweed, Amaranthus palmeri); experiment: as above; details: 10 days, 0 = no effect, 100 = complete control
Excerpt: as §1, §2

[23] = 31 g ai/ha, greenhouse 10 days, 0 no effect, 100 complete control
[24] = 125 g ai/ha, 10 days, 0 is no effect, 100 is complete control

Q: How did the “Barnyardgrass plant response rating (0 to 100 scale)” value [1, 23] turn out when `CC1(C(=O)NC2CC=C(C(=O)NS(=O)(=O)C3CC3)C2)CN(c2cc(Cl)cc(Cl)c2)C(=O)O1` (centres unmarked) [Compound 75] was run?
A: Its value is 80.

Q: And the “Barnyardgrass plant response rating (0 to 100 scale)” value [1, 24]?
A: The value was 90.

Q: And the “Ryegrass, Italian plant response rating (0 to 100 scale)” value (shortened to “Ryegrass … (0 to 100 scale)”) [2, 23]?
A: Its value is 50.

Q: And the “Ryegrass … (0 to 100 scale)” value [2, 24]?
A: The value was 70.

Q: And the “Soybean plant response rating (0 to 100 scale)” value [3, 23]?
A: Its value is 20.

Q: What about the “Soybean plant response rating (0 to 100 scale)” value [3, 24] of the same compound?
A: The value was 50.

Q: What about the “Oat, Wild plant response rating (0 to 100 scale)” value (shortened to “Oat … (0 to 100 scale)”) [4, 23] of the same compound?
A: Its value is 10.

Q: What about the “Oat … (0 to 100 scale)” value [4, 24] of the same compound?
A: The value was 90.

Q: What about the “Galium plant response rating (0 to 100 scale)” value [5, 23] of the same compound?
A: The value was 40.

Q: And the “Galium plant response rating (0 to 100 scale)” value [5, 24]?
A: The value was 80.

Q: What about the “Corn plant response rating (0 to 100 scale)” value [6, 23] of the same compound?
A: Its value is 70.

Q: And the “Corn plant response rating (0 to 100 scale)” value [6, 24]?
A: The value was 90.

Q: What about the “Blackgrass plant response rating (0 to 100 scale)” value [7, 23] of the same compound?
A: The value was 0.

Q: What about the “Blackgrass plant response rating (0 to 100 scale)” value [7, 24] of the same compound?
A: Its value is 80.

Q: And the “Ragweed plant response rating (0 to 100 scale)” value [8, 23]?
A: Its value is 0.

Q: What about the “Ragweed plant response rating (0 to 100 scale)” value [8, 24] of the same compound?
A: Its value is 60.

Q: And the “Wheat plant response rating (0 to 100 scale)” value [9, 23]?
A: The value was 70.

Q: And the “Wheat plant response rating (0 to 100 scale)” value [9, 24]?
A: Its value is 80.

Q: And the “Kochia plant response rating (0 to 100 scale)” value [10, 23]?
A: The value was 80.

Q: And the “Kochia plant response rating (0 to 100 scale)” value [10, 24]?
A: Its value is 80.

Q: What about the “Horseweed plant response rating (0 to 100 scale)” value [11, 23] of the same compound?
A: Its value is 40.

Q: What about the “Horseweed plant response rating (0 to 100 scale)” value [11, 24] of the same compound?
A: The value was 70.

Q: And the “Amaranth, Palmer / Pigweed, Palmer plant response rating (0 to 100 scale)” value [12, 23]?
A: Its value is 70.

Q: And the “Amaranth, Palmer / Pigweed, Palmer plant response rating (0 to 100 scale)” value [12, 24]?
A: The value was 90.

Q: What about the “Barnyardgrass plant response rating (0-100)” value ([13]; 31 g ai/ha) of the same compound?
A: Its value is 0.

Q: And the “Barnyardgrass plant response rating (0 to 100 scale)” value ([13]; 125 g ai/ha)?
A: The value was 80.

Q: What about the “Ryegrass, Italian plant response rating (0-100)” value ([14]; 31 g ai/ha) of the same compound?
A: The value was 10.

Q: And the “Ryegrass … (0 to 100 scale)” value ([14]; 125 g ai/ha)?
A: Its value is 70.

Q: And the “Soybean plant response rating (0-100)” value ([15]; 31 g ai/ha)?
A: The value was 30.

Q: What about the “Soybean plant response rating (0 to 100 scale)” value ([15]; 125 g ai/ha) of the same compound?
A: The value was 10.

Q: And the “Oat, Wild plant response rating (0-100)” value ([16]; 31 g ai/ha)?
A: Its value is 0.

Q: What about the “Oat … (0 to 100 scale)” value ([16]; 125 g ai/ha) of the same compound?
A: The value was 0.

Q: And the “Corn plant response rating (0-100)” value ([17]; 31 g ai/ha)?
A: Its value is 0.

Q: What about the “Corn plant response rating (0 to 100 scale)” value ([17]; 125 g ai/ha) of the same compound?
A: The value was 0.

Q: What about the “Blackgrass plant response rating (0-100)” value ([18]; 31 g ai/ha) of the same compound?
A: The value was 20.

Q: And the “Blackgrass plant response rating (0 to 100 scale)” value ([18]; 125 g ai/ha)?
A: The value was 40.

Q: What about the “Ragweed plant response rating (0-100)” value ([19]; 31 g ai/ha) of the same compound?
A: The value was 10.

Q: What about the “Ragweed plant response rating (0 to 100 scale)” value ([19]; 125 g ai/ha) of the same compound?
A: The value was 0.

Q: What about the “Wheat plant response rating (0-100)” value ([20]; 31 g ai/ha) of the same compound?
A: Its value is 0.

Q: And the “Wheat plant response rating (0 to 100 scale)” value ([20]; 125 g ai/ha)?
A: Its value is 40.

Q: And the “Kochia plant response rating (0-100)” value ([21]; 31 g ai/ha)?
A: Its value is 50.

Q: What about the “Kochia plant response rating (0 to 100 scale)” value ([21]; 125 g ai/ha) of the same compound?
A: Its value is 90.

Q: What about the “Amaranth, Palmer plant response rating (0-100)” value ([22]; 31 g ai/ha) of the same compound?
A: Its value is 50.

Q: And the “Amaranth, Palmer plant response rating (0 to 100 scale)” value ([22]; 125 g ai/ha)?
A: Its value is 90.
